Assay results taken from patent US20040058948A1, “Mappicine analogs, methods of inhibiting retroviral reverse transcriptase and methods of treating retroviruses” (priority 2002, published 2004).
“And” between values parts separate entries of the source, which are not always exact repeats. Identical values can stand only once.

What was measured:
[1] = molecular target: T1, RNA-dependent DNA polymerase activity of HIV reverse transcriptase (Human immunodeficiency virus type 1 group M subtype B, UniProt P04585); experiment: RNA-dependent DNA polymerase activity assay of HIV reverse transcriptase; type: biochemical, HIV-1; conditions: 10 μM inhibitor concentration, activity with analog / without analog x 100; for remaining activity at 10 µM: read-out: Residual activity (%) Polymerase
T1 construct: made in house
Protocol: In separate, representative assays, mappicine analogs were tested for their ability to inhibit the RNA-dependent DNA polymerase activity of HIV reverse transcriptase and for their ability to inhibit the RNase H activity of HIV reverse transcriptase. The assay for RNA-dependent DNA polymerase activity is discussed in Borkow, G. et al., “Inhibition of the Ribonuclease H and DNA Polymerase Activities of HIV-1 Reverse Transcriptase by N-(4-tert-Butylbenzoyl)-2-hydroxy-1-naphthaldehyde Hydrazone,” Biochemistry 1997, 36, 3179-3185, a copy of which is attached hereto, and the disclosure of which is incorporated herein by reference. Assays were carried out in the absence and in the presence of mappicine analogs (10 μM final concentration). The results are reported as % residual activity, which is the RNA-dependent DNA polymerase activity of the enzyme in the presence of the mappicine analog divided by the RNA-dependent activity of the enzyme in the absence of the mappicine analog, multiplied by 100.

[2] = molecular target: RNase H activity of HIV reverse transcriptase (Human immunodeficiency virus type 1 group M subtype B, UniProt P04585); experiment: Fluorescence (FRET)-based RNase H activity assay of HIV reverse transcriptase; type: biochemical, HIV-1; parameters: final concentration of 2.5 nM of the p51/p66 RT heterodimer in the assay; made in house; conditions: 10 μM inhibitor concentration, activity with analog / without analog x 100; for remaining activity at 10 µM: read-out: Residual activity (%) RNase H
Protocol: Recently, a fluorescence-based assay to perform preliminary screens in search of HIV RNase H inhibitors has been developed. The assay, which is carried out in 96-well microplates and is adaptable to robotics, is the first high-throughput screen for RNase H and is described in further detail in the Experimental section. HIV-1 RT and human RNase H were cloned, and thus comparative analysis of inhibitor action could be conducted simultaneously.
The assay for RNase H activity of HIV reverse transcriptase was the fluorescence-based assay described in detail in the Experimental section and discussed in U.S. Provisional Patent Application Serial No. 60/318,359. Assays were carried out in the absence and in the presence of mappicine analogs (10 μM final concentration). The results are reported as % residual activity, which is the RNase H activity of the enzyme in the presence of the mappicine analog divided by the RNase H activity of the enzyme in the absence of the mappicine analog, multiplied by 100. Alternatively, the results are reported as % inhibition, which is calculated as the ratio of the RNase H activity of the enzyme in the presence of the mappicine analog to the enzyme activity in the absence of the mappicine analog, multiplied by 100, and then subtracting this number from 100.
Assay for Ribonuclease H Activity Based on Fluorescence Resonance Energy Transfer (FRET)
Preparation of the Fluorophore-RNA/Quencher-DNA Hybrid Duplex Substrate.
The RNA/DNA hybrid duplex substrate for use in the assay comprises an RNA oligonucleotide of sequence 5′-GAU CUG AGC CUG GGA GCU-3′, modified at the 3′-end with Aminolink-2 and derivatized with fluorescein isothiocyanate, to provide a modified RNA oligonucleotide of the sequence 5′-GAU CUG AGC CUG GGA GCU-fluorescein-3′, annealed to a complementary DNA oligonucleotide of the sequence 5′-AGC TCC CAG GCT CAG ATC-3′ modified at the 5′-end with Aminolink-2 and derivatized with the FRET acceptor DABCYL succinimidyl ester, to provide a modified DNA oligonucleotide of the sequence 5′-DABCYL-AGC TCC CAG GCT CAG ATC-3′.
To prepare the 3′-fluorescein-RNA/5′-DABCYL-DNA hybrid duplex substrate, a known amount of 3′-fluorescein-RNA was dissolved in 20 mM Tris buffer (pH 8.0, 37° C.) to provide a final concentration of 5 μM. Two equivalents of the 5′-DABCYL-DNA oligonucleotide were added, and the mixture was heated to 90° C. for 5 min and cooled slowly to room temperature to allow duplex formation. The positioning of the fluorescein donor at the 3′-end of the RNA oligonucleotide and the DABCYL acceptor at the 5′-end of the DNA oligonucleotide provides a very close proximity of the donor and acceptor that results in a very intense quenching of the fluorescein emission in the intact RNA/DNA hybrid duplex substrate due to the spectral overlap of the fluorescence emission of fluorescein with the absorption spectrum of DABCYL. In addition, DABCYL is non-fluorescent, and thus cannot contribute any light emission. Both of these factors result in a very low background and provide a high signal-to-noise in the assay measurements. The ratio of the donor fluorescence in the absence and in the presence of its quencher is approximately fifteen-fold.
Microplate Assay Protocol for the Measurement of RNase H Activity Using the RNA/DNA Hybrid Duplex Substrate.
Reaction assay mixtures contained 5 μl of a stock solution of 2.5 μM RNA/DNA hybrid duplex substrate added to 85 μl of assay buffer (50 mM Tris, pH 8.0, 37° C., containing 60 mM KCl and 2.5 mM MgCl2), prepared in the wells of a 96-well fluorescence microtiter plate, and warmed to 37° C. using the temperature control of the SpectraMax Gemini XS microplate spectrofluorometer (Molecular Devices). Reactions were started by the addition of 5 μl of a solution of recombinant HIV-1 reverse transcriptase (usually providing a final concentration of 2.5 nM of the p51/p66 RT heterodimer in the assay), and mixing using the automatic mixing function of the microplate spectrofluorometer. […]

SMILES | Residual activity (%) Polymerase [1] | Residual activity (%) RNase H [2] | further results
CCC(O)c1cc2n(c(=O)c1C)Cc1c-2nc2ccc(C)cc2c1-c1ccccc1 (racemic) [3Cα] | 64% | 96% | –
CCCCCCc1c2c(nc3ccc(OC)cc13)-c1cc(C(O)CCC3CCCCC3)c(C)c(=O)n1C2 (racemic) [8Dδ] | 81% | 63% | –
CCCCCCc1c2c(nc3ccccc13)-c1cc(C(O)CCC3CCCCC3)c(C)c(=O)n1C2 (centres unmarked) [8Aδ] | 72% | 89% | –
Cc1c(C(=O)CCC2CCCCC2)cc2n(c1=O)Cc1c-2nc2ccccc2c1[Si](C)(C)C [5Aδκ] | 90% | 75% | –
COc1ccc2nc3c(c(-c4ccccc4)c2c1)Cn1c-3cc(C(=O)CCC2CCCCC2)c(C)c1=O [3Dδκ] | 81% | 97% | –
Cc1c(C(=O)C(C)(C)C)cc2n(c1=O)Cc1c-2nc2ccc(F)cc2c1[Si](C)(C)C [5Bβκ] | 63% | 100% | –
CCCCCCc1c2c(nc3ccc(OC)cc13)-c1cc(C(=O)CCC3CCCCC3)c(C)c(=O)n1C2 [8Dδκ] | 65% | 90% | –
Cc1ccc2nc3c(c([Si](C)(C)C)c2c1)Cn1c-3cc(C(O)CCC2CCCCC2)c(C)c1=O (racemic) [5Cδ] | 41% | 103% | –
Cc1c(C(O)CCC2CCCCC2)cc2n(c1=O)Cc1c-2nc2ccc(F)cc2c1[Si](C)(C)C (racemic) [5Bδ] | 78% | 103% | –
CCCCCCc1c2c(nc3ccc(F)cc13)-c1cc(C(=O)CCC3CCCCC3)c(C)c(=O)n1C2 [8Bδκ] | 80% | 95% | –
Cc1c(C(=O)CCC2CCCCC2)cc2n(c1=O)Cc1c-2nc2ccc(F)cc2c1-c1ccccc1 [3Bδκ] | 59% | 93% | –
CCC(=O)c1cc2n(c(=O)c1C)Cc1c-2nc2ccc(F)cc2c1-c1ccccc1 [3Bακ] | 100% | 94% | –
Cc1c(C(=O)CCC2CCCCC2)cc2n(c1=O)Cc1c-2nc2ccccc2c1-c1ccccc1 [3Aδκ] | 66% | 73% | –
CCC(=O)c1cc2n(c(=O)c1C)Cc1c-2nc2ccc(OC)cc2c1[Si](C)(C)C(C)(C)C [4Dακ] | 80% | 77% | –
Cc1c(C(O)CCC2CCCCC2)cc2n(c1=O)Cc1c-2nc2ccccc2c1[Si](C)(C)C(C)(C)C (racemic) [4Aδ] | 45% | 95% | –
COc1ccc2nc3c(c([Si](C)(C)C(C)(C)C)c2c1)Cn1c-3cc(C(=O)CCC2CCCCC2)c(C)c1=O [4Dδκ] | – | – | Residual activity (%) Polymerase ([1]; 10 µM): 50% and 64%; Residual activity (%) RNase H ([2]; 10 µM): 83% and 97%
CCC(O)c1cc2n(c(=O)c1C)Cc1c-2nc2ccccc2c1[Si](C)(C)C (centres unmarked) [5Aα] | – | – | Residual activity (%) Polymerase ([1]; 10 µM): 32%; Residual activity (%) RNase H ([2]; 10 µM): 93%

SMILES | Residual activity (%) Polymerase [1] | Residual activity (%) RNase H [2] | further results
Cc1c(C(O)Cc2ccccc2)cc2n(c1=O)Cc1c-2nc2ccc(F)cc2c1[Si](C)(C)C(C)(C)C (centres unmarked) [4Bε] | 61% | 89% | –
Cc1c(C(O)Cc2ccccc2)cc2n(c1=O)Cc1c-2nc2ccccc2c1[Si](C)(C)C(C)(C)C (racemic) [4Aε] | 83% | 93% | –
Cc1c(C(O)Cc2ccccc2)cc2n(c1=O)Cc1c-2nc2ccc(F)cc2c1[Si](C)(C)C (centres unmarked) [5Bε] | 49% | 88% | –
Cc1c(C(=O)C(C)(C)C)cc2n(c1=O)Cc1c-2nc2ccccc2c1[Si](C)(C)C [5Aβκ] | 47% | 97% | –
Cc1ccc2nc3c(c([Si](C)(C)C)c2c1)Cn1c-3cc(C(=O)C(C)(C)C)c(C)c1=O [5Cβκ] | 76% | 92% | –
CCCCCCc1c2c(nc3ccc(OC)cc13)-c1cc(C(O)Cc3ccccc3)c(C)c(=O)n1C2 (centres unmarked) [8Dε] | 73% | 82% | –
Cc1c(C(O)Cc2ccccc2)cc2n(c1=O)Cc1c-2nc2ccccc2c1[Si](C)(C)C (racemic) [5Aε] | 54% | 93% | –
Cc1c(C(O)CCC2CCCCC2)cc2n(c1=O)Cc1c-2nc2ccc(F)cc2c1[Si](C)(C)C(C)(C)C (centres unmarked) [4Bδ] | 44% | 90% | –
CCCCCCc1c2c(nc3ccccc13)-c1cc(C(O)Cc3ccccc3)c(C)c(=O)n1C2 (racemic) [8Aε] | 58% | 71% | –
CCCCCCc1c2c(nc3ccc(C)cc13)-c1cc(C(=O)CCC3CCCCC3)c(C)c(=O)n1C2 [8Cδκ] | 79% | 95% | –
CCCCCCc1c2c(nc3ccc(C)cc13)-c1cc(C(=O)Cc3ccccc3)c(C)c(=O)n1C2 [8Cεκ] | 66% | 86% | –
CCc1c2c(nc3ccc(OC(C)=O)cc13)-c1cc(C(O)CC)c(C)c(=O)n1C2 (centres unmarked) [AG 7M, 2-Acetoxy-12-ethyl-7-(1-hydroxypropyl)-8-methyl-11H-indolizino[1,2-b]quinolin-9-one] | – | – | remaining activity at 10 µM [1]: 99%; remaining activity at 10 µM [2]: 63%
CCC(=O)c1cc2n(c(=O)c1C)Cc1c-2nc2ccc(F)cc2c1[Si](C)(C)C(C)(C)C [4Bακ] | 42% | 77% | –
CCCCCCc1c2c(nc3ccc(C)cc13)-c1cc(C(=O)C(C)(C)C)c(C)c(=O)n1C2 [8Cβκ] | 66% | 95% | –
Cc1c(C(=O)C(C)(C)C)cc2n(c1=O)Cc1c-2nc2ccc(F)cc2c1-c1ccccc1 [3Bβκ] | 61% | 95% | –
CCc1c2c(nc3ccc(O)cc13)-c1cc(C(O)CC)c(C)c(=O)n1C2 (centres unmarked) [AG 8M, 12-Ethyl-2-hydroxy-7-(1-hydroxypropyl)-8-methyl-11H-indolizino[1,2-b]quinolin-9-one] | – | – | remaining activity at 10 µM [1]: 69%; remaining activity at 10 µM [2]: 87%
CCC(=O)c1cc2n(c(=O)c1C)Cc1c-2nc2ccc(C)cc2c1-c1ccccc1 [3Cακ] | 71% | 99% | –
